Source: ChEMBL document CHEMBL4190378, “Synthesis and evaluation of new 2-chloro-4-aminopyrimidine and 2,6-dimethyl-4-aminopyrimidine derivatives as tubulin polymerization inhibitors” (Bioorg Med Chem Lett, 2018)
Calls of active or inactive are those of the source. The calls are words filed in the database; no cut-off is given here.

How the values were obtained:
A549 = experiment: Antiproliferative activity against human A549 cells incubated for 48 hrs by MTT assay; format: functional, cell-based; settings: A549, 48 h
HepG2 = experiment: Antiproliferative activity against human HepG2 cells incubated for 48 hrs by MTT assay; format: functional, cell-based; settings: HepG2, 48 h
HeLa [1] = experiment: Induction of cell cycle arrest in human HeLa cells assessed as induction of disappearance of G2/M phase at 100 nM incubated for 48 hrs by propidium iodide staining based flow cytometry; format: functional
HeLa [2] = experiment: Induction of cell cycle arrest in human HeLa cells assessed as accumulation at subG1 phase at 500 nM incubated for 24 hrs by propidium iodide staining based flow cytometry; format: functional
HeLa [3] = experiment: Induction of apoptosis in human HeLa cells assessed as viable cells level at 50 nM incubated for 48 hrs by Annexin-V/FITC and propidium iodide staining based flow cytometry (reference value: 99.72%); format: functional
HeLa [4] = experiment: Induction of apoptosis in human HeLa cells assessed as late apoptotic cells level at 50 nM incubated for 48 hrs by Annexin-V/FITC and propidium iodide staining based flow cytometry (reference value: 0.02%); format: functional
HeLa [5] = experiment: Induction of apoptosis in human HeLa cells assessed as viable cells level at 100 nM incubated for 48 hrs by Annexin-V/FITC and propidium iodide staining based flow cytometry (reference value: 99.72%); format: functional
HeLa [6] = experiment: Induction of apoptosis in human HeLa cells assessed as late apoptotic cells level at 100 nM incubated for 48 hrs by Annexin-V/FITC and propidium iodide staining based flow cytometry (reference value: 0.02%); format: functional
HeLa [7] = experiment: Induction of apoptosis in human HeLa cells assessed as viable cells level at 50 nM incubated for 72 hrs by Annexin-V/FITC and propidium iodide staining based flow cytometry (reference value: 99.72%); format: functional
HeLa [8] = experiment: Induction of apoptosis in human HeLa cells assessed as early apoptotic cells level at 50 nM incubated for 72 hrs by Annexin-V/FITC and propidium iodide staining based flow cytometry (reference value: 0.16%); format: functional
HeLa [9] = experiment: Induction of apoptosis in human HeLa cells assessed as late apoptotic cells level at 100 nM incubated for 72 hrs by Annexin-V/FITC and propidium iodide staining based flow cytometry (reference value: 0.02%); format: functional
HeLa [10] = experiment: Induction of apoptosis in human HeLa cells assessed as early apoptotic cells level at 500 nM incubated for 72 hrs by Annexin-V/FITC and propidium iodide staining based flow cytometry (reference value: 0.16%); format: functional
HeLa [11] = experiment: Induction of mitochondrial transmembrane potential loss in human HeLa cells assessed as JC1 dye monomers level at 50 nM incubated for 24 hrs by JC1 staining based flow cytometry (reference value: 4.12%); format: functional
HeLa [12] = experiment: Induction of mitochondrial transmembrane potential loss in human HeLa cells assessed as JC1 dye monomers level at 100 nM incubated for 24 hrs by JC1 staining based flow cytometry (reference value: 4.12%); format: functional
HeLa [13] = experiment: Induction of mitochondrial transmembrane potential loss in human HeLa cells at 100 nM incubated for 24 hrs by JC1 staining based fluorescence microscopy; format: functional, cell-based

In the case of `COc1ccc(N(C)c2cc(C)nc(C)n2)cc1O`, the IC50 (A549) is reported as 113 nM, the IC50 (HepG2) is reported as 112 nM and the Activity (HeLa [1]) is reported as “Active”. For the same compound, the Activity (HeLa [2]) was “Active”, the Activity (HeLa [3]) was 89.56% and the Activity (HeLa [4]) was 0%. For the same compound, the Activity (HeLa [5]) was 76.71%, the Activity (HeLa [6]) was 0.05% and the Activity (HeLa [7]) was 82.18%. It also gave an Activity (HeLa [8]) of 9.78%, an Activity (HeLa [9]) of 11.63% and an Activity (HeLa [10]) of 66.08%. The Activity (HeLa [11]) was 11.47%, the Activity (HeLa [12]) was 28.64% and the Activity (HeLa [13]) was “Active”.
